Literature values in article PMC6095608 (PLoS ONE, 2018).

Test system: rats
Conditions: co-administered trimethoprim; cited from earlier work

In the case of COc1cc(Cc2cnc(N)nc2N)cc(OC)c1OC [trimethoprim], the “Effect on lamivudine accumulation in the renal cortex” value is listed as “did not impair”.
